The target in assay [1] is T1, muscarinic M1 receptor (Homo sapiens, UniProt P11229).
T1 sequence (P11229 1-460): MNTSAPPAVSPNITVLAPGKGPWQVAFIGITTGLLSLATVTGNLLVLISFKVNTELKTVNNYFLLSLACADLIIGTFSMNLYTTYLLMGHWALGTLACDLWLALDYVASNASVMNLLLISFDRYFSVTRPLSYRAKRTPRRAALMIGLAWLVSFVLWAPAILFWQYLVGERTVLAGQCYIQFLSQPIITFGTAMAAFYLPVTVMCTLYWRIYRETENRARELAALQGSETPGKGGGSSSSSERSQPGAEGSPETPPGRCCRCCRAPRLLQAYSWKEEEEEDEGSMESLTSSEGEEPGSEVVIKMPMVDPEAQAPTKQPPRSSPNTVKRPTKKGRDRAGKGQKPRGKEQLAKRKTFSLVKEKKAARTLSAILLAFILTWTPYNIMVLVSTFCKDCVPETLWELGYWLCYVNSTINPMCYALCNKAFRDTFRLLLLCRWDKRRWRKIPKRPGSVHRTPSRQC
As to the kind of experiment: biochemical.

Assay [2] addresses T2, adrenergic alpha-2B receptor (Alpha2B) (Homo sapiens, UniProt P18089).
T2 construct: expressed in transfected cells
Put plainly: Equilibrium receptor binding, recombinant human receptor.

The target in assay [3] is T3, 5-HT2C receptor (Homo sapiens, UniProt P28335).
T3 construct: expressed in transfected cells
T3 sequence (P28335 33-458): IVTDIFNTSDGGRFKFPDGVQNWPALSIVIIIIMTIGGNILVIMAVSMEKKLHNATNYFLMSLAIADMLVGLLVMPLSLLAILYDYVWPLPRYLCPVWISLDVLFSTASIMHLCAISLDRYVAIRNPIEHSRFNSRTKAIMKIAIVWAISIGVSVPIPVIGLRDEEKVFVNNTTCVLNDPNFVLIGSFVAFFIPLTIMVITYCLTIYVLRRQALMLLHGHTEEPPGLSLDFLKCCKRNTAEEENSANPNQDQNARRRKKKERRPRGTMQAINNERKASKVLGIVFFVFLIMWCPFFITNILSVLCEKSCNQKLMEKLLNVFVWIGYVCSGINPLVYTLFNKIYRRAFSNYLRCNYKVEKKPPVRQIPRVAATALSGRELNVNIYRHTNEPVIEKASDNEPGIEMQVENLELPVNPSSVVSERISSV
Put plainly: G-protein-dependent signal transduction, intracellular Ca2+ mobilization. It is filed as cell-based. As for the experimental part:
(§1) Quantitation was based on peak area ratio of the analytes versus their stable labeled internal standards. A weighted (1/C2), linear regression was performed to determine the concentration of the analytes. All regressions and figures presented in this validation report were generated by MDS Sciex Analyst version 1.4.2 and Thermo Electron Corporation Watson LIMS software, version 7.0.0.01b. […] Select receptors were analyzed in ligand-induced intracellular calcium mobilization.
(In general: Calcium assays in cells follow changes in intracellular calcium, usually with a dye or a luminescent sensor.)

Assay [4] deals with T4, 5-HT2A (Homo sapiens, UniProt P28223).
T4 construct: expressed in transfected cells
Described as above. The format is cell-based. The settings on record: for IC50: Ca2+ mobilization, read-out: IC50, functional antagonist. Here is the method: as §1

For assay [5], the target named is T1, muscarinic M1 receptor. Put plainly: G-protein-independent signal transduction, β-arrestin signaling. It is filed as cell-based. More on the design: expressed in transfected cells. As to conditions: for IC50: M1, β-arrestin signaling, read-out: IC50, functional antagonist.
Assay [6] deals with T5, adrenergic alpha-2A receptor (Alpha2A) (Homo sapiens, UniProt P08913).
T5 construct: expressed in transfected cells
T5 sequence (P08913 1-465): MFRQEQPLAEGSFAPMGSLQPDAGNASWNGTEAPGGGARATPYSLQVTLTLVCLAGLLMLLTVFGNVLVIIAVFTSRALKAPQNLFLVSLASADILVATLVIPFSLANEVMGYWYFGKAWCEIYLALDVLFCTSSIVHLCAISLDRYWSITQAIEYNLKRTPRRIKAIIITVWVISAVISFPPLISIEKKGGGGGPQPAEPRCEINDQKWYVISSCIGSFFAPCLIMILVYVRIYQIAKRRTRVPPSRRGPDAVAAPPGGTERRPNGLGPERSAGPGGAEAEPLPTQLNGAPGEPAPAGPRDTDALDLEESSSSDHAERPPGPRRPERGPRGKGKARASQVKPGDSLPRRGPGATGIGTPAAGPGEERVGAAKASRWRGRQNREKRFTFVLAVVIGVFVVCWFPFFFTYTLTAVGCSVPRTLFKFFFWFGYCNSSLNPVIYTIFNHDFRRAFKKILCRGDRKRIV
As to the kind of experiment: Equilibrium receptor binding, recombinant human receptor.

For assay [7], the target named is T6, dopamine D1 receptor (Homo sapiens, UniProt P21728).
T6 construct: expressed in transfected cells
Put plainly: G-protein-dependent signal transduction (Ca2+ mobilization, cAMP production or inositol triphosphate turnover). It is filed as cell-based. The settings on record: for IC50: read-out: IC50 (nM) (Antagonist).

For assay [8], the target named is T7, D4.4 (Homo sapiens, UniProt P21917).
T7 construct: expressed in transfected cells
Put plainly: Equilibrium receptor binding, recombinant human receptor.

The target of assay [9] is T4, 5-HT2A. Put plainly: G-protein-dependent signal transduction, turnover of inositol triphosphate (IP). The format is cell-based. The settings on record: read-out: IC50 (nM) (Antagonist).
The target of assay [10] is T8, 5-HT5A receptor (Homo sapiens, UniProt P47898).
T8 construct: expressed in transfected cells
As to the kind of experiment: Equilibrium receptor binding, recombinant human receptor.

Assay [11] addresses T9, D2S (Homo sapiens, UniProt P14416).
T9 construct: expressed in transfected cells
Described as above.

The target of assay [12] is T10, adrenergic α1B receptor (Alpha1B) (Homo sapiens, UniProt P35368).
T10 construct: expressed in transfected cells
The description is as above.

Assay [13] concerns the target norepinephrine (NE) transporter (Homo sapiens, UniProt P23975). As to the kind of experiment: Equilibrium binding to transporters (FIG. 19). As to conditions: Norepinephrine TP (transporter).
The target in assay [14] is D5 (Homo sapiens, UniProt P21918). As to the kind of experiment: Equilibrium receptor binding, recombinant human receptor.
The target in assay [15] is T11, histamine H1 receptor (Homo sapiens, UniProt P35367).
T11 construct: expressed in transfected cells
The assay is described as above. As to conditions: for Ki: H1.

For assay [16], the target named is T1, muscarinic M1 receptor. Put plainly: G-protein-dependent signal transduction, intracellular Ca2+ mobilization. More on the design: expressed in transfected cells. As to conditions: for IC50: M1, Ca2+ mobilization, read-out: IC50, functional antagonist. It is filed as cell-based.
Setting [17] is: 5-HT2c, read-out: IC50, functional antagonist.

Where “and” joins values, the source holds several entries; their conditions need not be identical. Equal entries are not always repeated. Where two headings read alike, the source gives them in different places.

T6 sequence (P21728 whole entry): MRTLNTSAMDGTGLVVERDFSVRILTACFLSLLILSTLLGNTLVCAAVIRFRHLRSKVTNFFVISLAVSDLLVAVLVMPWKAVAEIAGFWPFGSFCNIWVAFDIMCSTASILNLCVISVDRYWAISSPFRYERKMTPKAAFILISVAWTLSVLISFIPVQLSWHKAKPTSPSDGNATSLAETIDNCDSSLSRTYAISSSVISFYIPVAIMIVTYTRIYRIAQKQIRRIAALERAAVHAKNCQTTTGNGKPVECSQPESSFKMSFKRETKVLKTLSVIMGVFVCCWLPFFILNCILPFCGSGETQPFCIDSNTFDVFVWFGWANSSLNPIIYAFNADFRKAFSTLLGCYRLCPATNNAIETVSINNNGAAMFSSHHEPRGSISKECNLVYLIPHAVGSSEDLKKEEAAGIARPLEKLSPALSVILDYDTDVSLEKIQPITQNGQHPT
T4 sequence (P28223 whole entry): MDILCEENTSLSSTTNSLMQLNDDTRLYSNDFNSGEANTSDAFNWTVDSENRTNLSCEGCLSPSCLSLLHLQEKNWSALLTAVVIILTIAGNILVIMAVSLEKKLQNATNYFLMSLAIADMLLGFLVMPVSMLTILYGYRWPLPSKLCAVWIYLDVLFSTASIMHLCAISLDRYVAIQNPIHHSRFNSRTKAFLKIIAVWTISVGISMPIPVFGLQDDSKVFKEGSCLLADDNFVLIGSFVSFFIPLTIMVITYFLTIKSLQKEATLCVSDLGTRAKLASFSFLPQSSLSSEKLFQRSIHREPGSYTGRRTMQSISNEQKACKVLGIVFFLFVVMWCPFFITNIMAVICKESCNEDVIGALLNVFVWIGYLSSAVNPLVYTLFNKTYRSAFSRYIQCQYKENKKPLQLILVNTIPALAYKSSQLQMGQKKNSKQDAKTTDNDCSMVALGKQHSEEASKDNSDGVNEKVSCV
T11 sequence (P35367 whole entry): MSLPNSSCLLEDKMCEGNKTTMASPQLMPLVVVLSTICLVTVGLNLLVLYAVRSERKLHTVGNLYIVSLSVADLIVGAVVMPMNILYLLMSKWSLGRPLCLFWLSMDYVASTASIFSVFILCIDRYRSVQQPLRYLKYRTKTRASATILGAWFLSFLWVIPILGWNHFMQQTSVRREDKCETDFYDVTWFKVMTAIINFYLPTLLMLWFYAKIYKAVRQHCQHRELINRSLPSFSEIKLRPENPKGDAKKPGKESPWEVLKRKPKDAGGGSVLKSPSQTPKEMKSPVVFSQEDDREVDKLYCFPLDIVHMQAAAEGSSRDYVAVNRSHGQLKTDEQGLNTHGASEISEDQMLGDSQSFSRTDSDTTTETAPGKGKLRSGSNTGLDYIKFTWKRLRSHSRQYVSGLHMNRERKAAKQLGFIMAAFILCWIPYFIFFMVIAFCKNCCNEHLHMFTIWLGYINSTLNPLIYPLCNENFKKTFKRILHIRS
Chain of D5 (P21918 whole entry): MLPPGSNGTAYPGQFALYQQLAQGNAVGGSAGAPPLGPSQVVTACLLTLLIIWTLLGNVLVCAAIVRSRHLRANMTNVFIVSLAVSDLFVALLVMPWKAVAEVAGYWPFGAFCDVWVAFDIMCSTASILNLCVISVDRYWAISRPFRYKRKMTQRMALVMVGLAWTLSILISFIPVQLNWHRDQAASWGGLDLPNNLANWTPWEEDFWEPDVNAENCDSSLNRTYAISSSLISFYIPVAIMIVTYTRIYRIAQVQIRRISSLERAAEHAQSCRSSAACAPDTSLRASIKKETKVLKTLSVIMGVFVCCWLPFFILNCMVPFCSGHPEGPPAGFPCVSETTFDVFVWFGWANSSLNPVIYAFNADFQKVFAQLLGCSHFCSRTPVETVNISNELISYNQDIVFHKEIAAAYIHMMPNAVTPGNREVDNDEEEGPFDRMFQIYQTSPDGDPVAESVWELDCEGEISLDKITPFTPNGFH
T10 sequence (P35368 whole entry): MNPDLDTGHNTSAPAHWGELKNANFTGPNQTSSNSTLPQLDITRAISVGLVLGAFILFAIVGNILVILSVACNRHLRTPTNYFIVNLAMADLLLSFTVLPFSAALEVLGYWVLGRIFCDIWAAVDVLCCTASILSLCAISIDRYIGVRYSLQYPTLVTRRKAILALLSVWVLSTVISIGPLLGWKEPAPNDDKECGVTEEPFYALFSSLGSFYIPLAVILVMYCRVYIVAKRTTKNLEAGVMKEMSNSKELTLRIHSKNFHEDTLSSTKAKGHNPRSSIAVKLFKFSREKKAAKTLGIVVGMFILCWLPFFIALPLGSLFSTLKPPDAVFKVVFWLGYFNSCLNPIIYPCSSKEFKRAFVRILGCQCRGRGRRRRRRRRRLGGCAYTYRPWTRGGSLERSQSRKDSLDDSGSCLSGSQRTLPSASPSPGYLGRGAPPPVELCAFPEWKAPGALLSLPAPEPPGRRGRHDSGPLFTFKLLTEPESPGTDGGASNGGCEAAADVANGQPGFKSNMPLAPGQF
T9 sequence (P14416 1-414 isoform P14416-2): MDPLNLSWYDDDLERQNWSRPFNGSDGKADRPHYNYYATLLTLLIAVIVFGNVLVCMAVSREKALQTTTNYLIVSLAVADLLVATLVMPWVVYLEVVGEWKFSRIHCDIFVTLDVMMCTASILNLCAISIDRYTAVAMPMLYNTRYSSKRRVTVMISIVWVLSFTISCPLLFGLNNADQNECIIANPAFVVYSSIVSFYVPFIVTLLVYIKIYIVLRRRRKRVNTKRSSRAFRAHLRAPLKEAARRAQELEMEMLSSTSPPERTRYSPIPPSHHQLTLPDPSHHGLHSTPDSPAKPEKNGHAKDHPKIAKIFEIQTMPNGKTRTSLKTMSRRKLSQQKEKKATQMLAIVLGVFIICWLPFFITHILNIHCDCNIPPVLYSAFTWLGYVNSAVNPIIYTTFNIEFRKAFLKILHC
Chain of norepinephrine (NE) transporter (P23975 whole entry): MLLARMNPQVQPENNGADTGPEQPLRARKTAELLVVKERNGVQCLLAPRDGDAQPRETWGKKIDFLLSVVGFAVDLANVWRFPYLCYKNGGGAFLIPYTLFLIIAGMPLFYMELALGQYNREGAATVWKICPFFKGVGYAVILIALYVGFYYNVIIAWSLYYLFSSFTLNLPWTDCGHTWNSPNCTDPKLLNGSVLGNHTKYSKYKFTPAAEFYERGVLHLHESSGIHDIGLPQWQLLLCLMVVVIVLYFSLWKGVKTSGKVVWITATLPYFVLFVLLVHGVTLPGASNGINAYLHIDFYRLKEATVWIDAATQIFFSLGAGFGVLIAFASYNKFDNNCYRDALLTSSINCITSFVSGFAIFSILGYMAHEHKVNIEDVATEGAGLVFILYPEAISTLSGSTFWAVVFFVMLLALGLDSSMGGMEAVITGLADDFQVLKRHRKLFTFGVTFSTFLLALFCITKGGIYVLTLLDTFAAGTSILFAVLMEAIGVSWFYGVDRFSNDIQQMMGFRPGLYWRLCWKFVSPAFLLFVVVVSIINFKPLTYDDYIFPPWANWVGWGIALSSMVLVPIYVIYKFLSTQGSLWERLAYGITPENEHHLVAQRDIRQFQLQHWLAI
T8 sequence (P47898 whole entry): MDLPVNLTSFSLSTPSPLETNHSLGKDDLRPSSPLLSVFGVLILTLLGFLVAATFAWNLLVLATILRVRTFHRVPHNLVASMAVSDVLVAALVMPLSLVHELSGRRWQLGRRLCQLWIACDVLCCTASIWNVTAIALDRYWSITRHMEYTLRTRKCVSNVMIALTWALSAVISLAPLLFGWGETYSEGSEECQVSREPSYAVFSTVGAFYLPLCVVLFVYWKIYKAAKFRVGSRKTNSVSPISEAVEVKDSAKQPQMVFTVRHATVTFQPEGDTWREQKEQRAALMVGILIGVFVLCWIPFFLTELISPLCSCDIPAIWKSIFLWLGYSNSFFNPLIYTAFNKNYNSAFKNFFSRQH
T2 sequence (P18089 whole entry): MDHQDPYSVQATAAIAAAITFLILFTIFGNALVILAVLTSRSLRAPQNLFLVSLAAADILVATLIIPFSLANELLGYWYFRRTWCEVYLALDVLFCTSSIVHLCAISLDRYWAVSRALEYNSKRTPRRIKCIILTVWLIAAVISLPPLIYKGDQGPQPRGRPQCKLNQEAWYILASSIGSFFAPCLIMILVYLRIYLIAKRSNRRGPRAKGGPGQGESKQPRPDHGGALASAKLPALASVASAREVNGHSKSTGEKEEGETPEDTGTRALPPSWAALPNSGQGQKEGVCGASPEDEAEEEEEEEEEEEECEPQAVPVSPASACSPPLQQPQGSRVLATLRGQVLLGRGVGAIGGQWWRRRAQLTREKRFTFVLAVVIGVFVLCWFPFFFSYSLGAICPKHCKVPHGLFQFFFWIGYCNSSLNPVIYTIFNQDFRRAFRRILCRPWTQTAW
T7 sequence (P21917 whole entry): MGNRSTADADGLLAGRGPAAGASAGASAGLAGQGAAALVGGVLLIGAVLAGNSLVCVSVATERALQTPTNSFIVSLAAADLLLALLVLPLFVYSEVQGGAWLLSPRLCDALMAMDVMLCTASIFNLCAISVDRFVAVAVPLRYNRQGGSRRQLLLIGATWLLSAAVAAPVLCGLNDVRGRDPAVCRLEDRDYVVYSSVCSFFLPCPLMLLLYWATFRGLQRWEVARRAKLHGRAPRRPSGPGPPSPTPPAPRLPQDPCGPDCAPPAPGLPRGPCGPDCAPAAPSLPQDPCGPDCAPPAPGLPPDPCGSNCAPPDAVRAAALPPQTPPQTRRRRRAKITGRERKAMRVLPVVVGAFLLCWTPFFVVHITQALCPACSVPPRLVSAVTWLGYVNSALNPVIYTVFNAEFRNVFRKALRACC

The term Ki denotes the dissociation constant of the complex between target and ligand, obtained from inhibition or displacement. A word on the IC50: it is the concentration that inhibits the measured activity by half. In the case of `CNCCC=C1c2ccccc2C=Cc2ccccc21` [norcyclobenzaprine, 3-(5H-dibenzo[a,d]cyclohepten-5-ylidene)-N-methyl-1-propanamine], the Ki in [1] is 30 nM; in assay [2], 150 nM; in assay [6], 1800 nM; in assay [8], 250 nM; in [10], 1600 nM; in assay [11], 410 nM. Moreover, the Ki in assay [12] is 11 nM; in assay [13] it was 2.6 nM; in assay [14] it was 280 nM; in assay [15], 5.6 nM and 5.9 nM. Further, the “Four parameter Hill slope (or fit slope) ratio; Ca2+ signaling” value in assay [3] (5-HT2C) is 0.94; in [4], 1.27; in [7], 0.98; in assay [16] (M1), 0.62. The IC50 is 1220 nM in [3] (setting [17]); 92 nM and 140 nM in [4]; 266 nM in assay [5]; 300 nM in assay [7]; 450 nM in assay [9]; 8.7 nM in assay [16]. Further, the “Four parameter Hill slope (or fit slope) ratio; β-arrestin signaling” value in [5] (M1) turned out to be 1.05. In addition, the “Hill plot ratio (Hill slope)” value in assay [15] was 1.04.

Consider `CN(C)CCC=C1c2ccccc2C=Cc2ccccc21` [cyclobenzaprine, 3-(5H-dibenzo[a,d]cyclohepten-5-ylidene)-N,N-dimethyl-1-propanamine], for which the Ki in [1] is 7.9 nM; in [2], 21 nM; in [6], 360 nM; in [8], 180 nM; in assay [10], 730 nM; in assay [11] it was 120 nM. Besides, the Ki worked out at 9.1 nM in [12], 35 nM in assay [13], 60 nM in assay [14] and 1.3 nM in assay [15]. The IC50 in assay [3] (5-HT2C, read-out: IC50 (nM) (Antagonist)) came to 444 nM; in assay [3] (setting [17]), 440 nM; in assay [4], 230 nM; in assay [5], 81 nM; in [7], 65 nM; in assay [9], 210 nM. Also, the IC50 in assay [16] is 0.71 nM.

The values above are taken from US20260232578A1, “COMPOSITIONS AND METHODS FOR TRANSMUCOSAL ABSORPTION” (Tonix Pharma Limited, priority 2012, published 2026).
